# According to patent publication US12582120B2, “Compositions with fatty acids and optional cationic compounds and methods of use” (priority 2021, dated 2026):
# “And” between values parts separate entries of the source, which are not always exact repeats. Identical values can stand only once.
# Experiments:
# [1] = system: Lactobacillus brevis (ATCC 14869); experiment: Example 1 preliminary screen of antimicrobial efficacy, Lactobacillus; assay type: cell-based
# Text: Example 1 was a preliminary screen of various compositions for antimicrobial efficacy against acetobacter and lactobacillus and yeast. […]
# [2] = system: Saccharomyces cerevisiae (ATCC 834); experiment: Example 1 preliminary screen of antimicrobial efficacy, yeast; assay type: cell-based; settings: pH 9, 60 s, 50 °C
# Method: (§1) Example 1 was a preliminary screen of various compositions for antimicrobial efficacy against acetobacter and lactobacillus and yeast. For this example, the compositions were applied for 1 minute at 50° C. or 60° C. to Acetobacter aceti (ATCC 15973), Lactobacillus brevis (ATCC 14869), or Saccharomyces cerevisiae (ATCC 834).
# [3] = system: Acetobacter aceti (ATCC 15973); experiment: Example 1 preliminary screen of antimicrobial efficacy, Acetobacter; assay type: cell-based; settings: 60 s, 50 °C
# Method: as §1
# [4] = system: Lactobacillus brevis (ATCC 14869); experiment: Example 3 suspension test of nonanoic acid alone, Lactobacillus; assay type: cell-based; settings: for % reduction / Log Reduction: Nonanoic Acid 200 ppm
# Method: (§2) Example 3 tested concentrations of nonanoic acid alone for antimicrobial efficacy against acetobacter and lactobacillus. For this example, the compositions were applied for the recorded time and temperature to suspensions of Acetobacter aceti (ATCC 15973), or Lactobacillus brevis (ATCC 14869). After the period of time, a neutralizer was added to quench the reaction. The remaining solution was plated and counted for colonies and compared to the untreated control. The log reduction was recorded in the table below. The information in the column labeled “solution” describes the solution environment that was used for a test. For example, the solution may have included 0.5% or 1% sodium bicarbonate. The solution may have included multi-day old used clean-in-place solution from a plant that included sodium carbonate (labeled “used CIP”). The pH of the solution was adjusted with sodium carbonate.
# [5] = system: Acetobacter aceti (ATCC 15973); experiment: Example 3 suspension test of nonanoic acid alone, Acetobacter; assay type: cell-based; settings: for % reduction / Log Reduction: Nonanoic Acid 200 ppm, pH 9
# Method: as §2
# [6] = known antimicrobial agents; cited from earlier work
# [7] = pH 8.5, 60 s, 50 °C, 1% sodium bicarbonate
# [8] = pH 8.5, 600 s, 50 °C, 1% sodium bicarbonate
# [9] = pH 8.5, 2 days, 20 °C, used CIP
# [10] = pH 8.7, 60 s, 45 °C, 0.5% sodium bicarbonate
# [11] = pH 8.7, 120 s, 45 °C, 0.5% sodium bicarbonate
# [12] = pH 8.7, 300 s, 45 °C, 0.5% sodium bicarbonate
# [13] = pH 8.7, 600 s, 45 °C, 0.5% sodium bicarbonate
# [14] = pH 9, 60 s, 50 °C, 1% sodium bicarbonate
# [15] = pH 10.5, 60 s, 50 °C, 1% sodium bicarbonate
# [16] = pH 10.5, 600 s, 50 °C, used CIP
# [17] = pH not adjusted, 60 s, 45 °C, 0.5% sodium bicarbonate
# [18] = pH not adjusted, 120 s, 45 °C, 0.5% sodium bicarbonate
# [19] = pH not adjusted, 300 s, 45 °C, 0.5% sodium bicarbonate
# [20] = pH not adjusted, 600 s, 45 °C, 0.5% sodium bicarbonate
# [21] = various times, temperatures, pHs, and solution conditions (Table 3)
# [22] = 60 s, 50 °C, 1% sodium bicarbonate
compound,measurement,setting,value
"CCCCCCCC(=O)O [Octanoic Acid, octanoic acid]",% reduction,"[1]; Octanoic Acid 125 ppm, pH 4, 60 s, 50 °C",100.000%
same,% reduction,"[1]; Octanoic Acid 125 ppm, pH 9, 60 s, 50 °C",97.813%
same,% reduction,"[1]; Octanoic Acid 150 ppm, pH 4, 50 s, 60 °C",100.000%
same,% reduction,"[1]; Octanoic Acid 200 ppm, pH 4, 50 s, 60 °C",100.000%
same,% reduction,[2]; Octanoic Acid 125 ppm,100.000%
same,% reduction,"[3]; Octanoic Acid 100 ppm, pH 4",0.000%
same,% reduction,"[3]; Octanoic Acid 100 ppm, pH 5",54.967%
same,% reduction,"[3]; Octanoic Acid 100 ppm, pH 9",99.999% and 99.998%
same,% reduction,"[3]; Octanoic Acid 125 ppm, pH 9",99.998%
same,% reduction,"[3]; Octanoic Acid 150 ppm, pH 4",86.207%
same,% reduction,"[3]; Octanoic Acid 200 ppm, pH 4",99.998% and 99.996%
same,% reduction,"[3]; Octanoic Acid 200 ppm, pH 7",99.993%
"CCCCCCCCC(=O)O [Nonanoic Acid, nonanoic acid]",% reduction,[4]; [7],99.636%
same,Log Reduction,[4]; [7],2.44
same,% reduction,[4]; [8],100.000%
same,Log Reduction,[4]; [8],6.90
same,% reduction,"[4]; pH 8.5, 600 s, 50 °C, used CIP",100.000%
same,Log Reduction,"[4]; pH 8.5, 600 s, 50 °C, used CIP",7.04
same,% reduction,[4]; [9],100.000%
same,Log Reduction,[4]; [9],7.20
same,% reduction,[4]; [10],99.900%
same,Log Reduction,[4]; [10],3.00
same,% reduction,[4]; [11],100.000%
same,Log Reduction,[4]; [11],7.64
same,% reduction,[4]; [12],100.000%
same,Log Reduction,[4]; [12],7.64
same,% reduction,[4]; [13],100.000%
same,Log Reduction,[4]; [13],7.64
same,% reduction,[4]; [14],99.736%
same,Log Reduction,[4]; [14],2.58
same,% reduction,"[4]; pH 9, 600 s, 50 °C, used CIP",100.000%
same,Log Reduction,"[4]; pH 9, 600 s, 50 °C, used CIP",7.04
same,% reduction,"[4]; pH 9, 2 days, 20 °C, used CIP",100.000%
same,Log Reduction,"[4]; pH 9, 2 days, 20 °C, used CIP",7.20
same,% reduction,[4]; [15],100.000%
same,Log Reduction,[4]; [15],7.04
same,% reduction,[4]; [16],100.000%
same,Log Reduction,[4]; [16],7.04
same,% reduction,[4]; [17],99.905%
same,Log Reduction,[4]; [17],3.02
same,% reduction,[4]; [18],100.000%
same,Log Reduction,[4]; [18],6.34
same,% reduction,[4]; [19],100.000%
same,Log Reduction,[4]; [19],7.64
same,% reduction,[4]; [20],100.000%
same,Log Reduction,[4]; [20],7.64
same,reducing gram positive bacteria,[4]; [21],effective
same,% reduction,"[1]; Nonanoic Acid 125 ppm, pH 4, 60 s, 50 °C",100.000%
same,% reduction,"[1]; Nonanoic Acid 125 ppm, pH 9, 60 s, 50 °C",96.125%
same,% reduction,[5]; [22],99.993%
same,Log Reduction,[5]; [22],4.18
same,% reduction,"[5]; 2 days, 20 °C, used CIP",97.846%
same,Log Reduction,"[5]; 2 days, 20 °C, used CIP",1.67
same,reducing gram negative bacteria,[5]; [21],effective
same,% reduction,[2]; Nonanoic Acid 125 ppm,99.954%
same,% reduction,"[3]; Nonanoic Acid 125 ppm, pH 9",99.998%
OO [hydrogen peroxide],Typical Antimicrobial pH Range,[6],<5
acidified sodium chlorite,Typical Antimicrobial pH Range,[6],2.5-4
CC(=O)OO [peracetic acid],Typical Antimicrobial pH Range,[6],<7
"CCCCCCCCCCCC(=O)N[C@@H](CCCN=C(N)N)C(=O)OCC [Ethyl Lauroyl Arginate, ethyl lauroyl arginate]",% reduction,"[1]; Ethyl Lauroyl Arginate 5 ppm, pH 4, 60 s, 50 °C",98.844%
same,% reduction,"[1]; Ethyl Lauroyl Arginate 5 ppm, pH 9, 60 s, 50 °C",99.999%
same,% reduction,"[1]; Ethyl Lauroyl Arginate 25 ppm, pH 4, 50 s, 60 °C",99.999%
same,% reduction,"[1]; Ethyl Lauroyl Arginate 25 ppm, pH 10, 50 s, 60 °C",100.000%
same,% reduction,"[1]; Ethyl Lauroyl Arginate 50 ppm, pH 4, 50 s, 60 °C",100.000%
same,% reduction,"[1]; Ethyl Lauroyl Arginate 50 ppm, pH 10, 50 s, 60 °C",100.000%
same,% reduction,[2]; Ethyl Lauroyl Arginate 5 ppm,99.888%
same,% reduction,"[3]; Ethyl Lauroyl Arginate 2.5 ppm, pH 9",99.891%
same,% reduction,"[3]; Ethyl Lauroyl Arginate 5 ppm, pH 9",99.981% and 99.922%
same,% reduction,"[3]; Ethyl Lauroyl Arginate 25 ppm, pH 4",32.759%
same,% reduction,"[3]; Ethyl Lauroyl Arginate 25 ppm, pH 9",99.808%
same,% reduction,"[3]; Ethyl Lauroyl Arginate 25 ppm, pH 10",99.241%
same,% reduction,"[3]; Ethyl Lauroyl Arginate 50 ppm, pH 4",98.491%
same,% reduction,"[3]; Ethyl Lauroyl Arginate 50 ppm, pH 10",99.763%
same,% reduction,"[3]; Ethyl Lauroyl Arginate 200 ppm, pH 7",99.999%
same,% reduction,"[3]; Ethyl Lauroyl Arginate 200 ppm, pH 10",99.998%
CCCCCCCC(=O)OO [peroctanoic acid],Typical Antimicrobial pH Range,[6],<5
